Key:
[1] = tested on: TLR2 (Toll-like receptor 2); assay: Inflammation gene regulation, mRNA q-PCR panel; format: cell-based; settings: mRNA by q-PCR, 8 hours treatment, primary human MSC (dendritic cells also described); CSA-13 at 5.0 μM
Description: (§1) Cells were purchased from Lonza.com and used fresh for each test using recommended media and culture conditions. After treatment, mRNA was isolated using Qiagen RNeasy Mini Kit®, and quantified using a NanoDrop 2000® by UV at 260 nm and 260/280 ratio for purity. cDNA was made using a First Strand Kit® from SABiosciences and processed for real time PCR using a kit from the same company for selected analysis of wound healing pathways. Results from q-PCR were uploaded to the SABiosciences site and to Ingenuity.com web site for analysis and pathway mapping. On day 1, primary human MSC cells were plated at 200,000 cells/well using 6-well plates with 3 ml of recommended media—hMSC Basal Medium+BulletKit (50 ml Growth Supplement, 10 ml L-Glutamine and 0.5 ml Gentamicin Sulfate Amphotercin-B) for 24 hours. Only early passages of cells were used, and never from frozen stock. On day 2, cells were treated with compounds dissolved in DMSO diluted 1:1000 or more to avoid effects of the solvent. […] Treatment lasted 8 hours, and was followed by RNA isolation using QIAGEN RNeasy Mini Kit® (74104). RNA was measured at 260/280 nm using a NanoDrop 2000® and normalized to 2.4 ng per well, cDNA preparation was done using QIAGEN First Strand kit 330401. q-PCR was run as absolute quantification and threshold set at 0.1 units. Dendritic cells were plated at 500,000 cells/well using 24-well plate with 500 μl of Lonza LGM-3 Complete Growth Medium with and without compound. Treatment lasted 8 hours, and was followed by RNA isolation using QIAGEN RNeasy Mini Kit® (74104). RNA was measured at 260/280 nm using NanoDrop2000® and normalized to 2.4 ng per well, cDNA preparation was done using QIAGEN First Strand kit 330401. PCR was run as absolute quantification and threshold set at 0.1 units.

[2] = tested on: TLR8 (Toll-like receptor 8); assay: Inflammation gene regulation, mRNA q-PCR panel; format: cell-based; settings: mRNA by q-PCR, 8 hours treatment, primary human MSC (dendritic cells also described); CSA-13 at 5.0 μM
Description: as §1

[3] = tested on: NFKB1 (Nuclear factor of kappa light polypeptide gene enhancer in B-cells 1); assay: Inflammation gene regulation, mRNA q-PCR panel; format: cell-based; settings: mRNA by q-PCR, 8 hours treatment, primary human MSC (dendritic cells also described); CSA-13 at 5.0 μM
Description: as §1

[4] = tested on: TNFRSF1A (Tmor necrosis factor receptor superfamily member 1A); assay: Inflammation gene regulation, mRNA q-PCR panel; format: cell-based; settings: mRNA by q-PCR, 8 hours treatment, primary human MSC (dendritic cells also described); CSA-13 at 5.0 μM
Description: as §1

[5] = tested on: TLR4 (Toll-like receptor 4); assay: Inflammation gene regulation, mRNA q-PCR panel; format: cell-based; settings: mRNA by q-PCR, 8 hours treatment, primary human MSC (dendritic cells also described); CSA-13 at 5.0 μM
Description: as §1

[6] = tested on: NFKB2 (Nuclear factor of kappa light polypeptide gene enhancer in B-cells 2); assay: Inflammation gene regulation, mRNA q-PCR panel; format: cell-based; settings: mRNA by q-PCR, 8 hours treatment, primary human MSC (dendritic cells also described); CSA-13 at 5.0 μM
Description: as §1

[7] = tested on: IL1B (Interleukin-1 beta); assay: Inflammation gene regulation, mRNA q-PCR panel; format: cell-based; settings: mRNA by q-PCR, 8 hours treatment, primary human MSC (dendritic cells also described); CSA-13 at 5.0 μM
Description: as §1

[8] = tested on: NFKBIA (Nuclear factor of kappa light polypeptide gene enhancer in B-cells inhibitor, alpha); assay: Inflammation gene regulation, mRNA q-PCR panel; format: cell-based; settings: mRNA by q-PCR, 8 hours treatment, primary human MSC (dendritic cells also described); CSA-13 at 5.0 μM
Description: as §1

[9] = tested on: IRAK2 (Interleukin-1 receptor-associated kinase 2); assay: Inflammation gene regulation, mRNA q-PCR panel; format: cell-based; settings: mRNA by q-PCR, 8 hours treatment, primary human MSC (dendritic cells also described); CSA-13 at 5.0 μM
Description: as §1

[10] = tested on: TLR6 (Toll-like receptor 6); assay: Inflammation gene regulation, mRNA q-PCR panel; format: cell-based; settings: mRNA by q-PCR, 8 hours treatment, primary human MSC (dendritic cells also described); CSA-13 at 5.0 μM
Description: as §1

[11] = tested on: TLR9 (Toll-like receptor 9); assay: Inflammation gene regulation, mRNA q-PCR panel; format: cell-based; settings: mRNA by q-PCR, 8 hours treatment, primary human MSC (dendritic cells also described); CSA-13 at 5.0 μM
Description: as §1

[12] = tested on: IL1A (Interleukin-1 alpha); assay: Inflammation gene regulation, mRNA q-PCR panel; format: cell-based; settings: mRNA by q-PCR, 8 hours treatment, primary human MSC (dendritic cells also described); CSA-13 at 5.0 μM
Description: as §1

[13] = tested on: TNF (Tumor necrosis factor); assay: Inflammation gene regulation, mRNA q-PCR panel; format: cell-based; settings: mRNA by q-PCR, 8 hours treatment, primary human MSC (dendritic cells also described); CSA-13 at 5.0 μM
Description: as §1

[14] = tested on: alveolar bone loss; settings: topical application; cited from earlier work

Structure (SMILES) | Fold Regulation TLR2 [1] | Fold Regulation TLR8 [2] | Fold Regulation NFKB1 [3] | Fold Regulation TNFRSF1A [4] | Fold Regulation TLR4 [5] | Fold Regulation NFKB2 [6] | Fold Regulation IL1B [7] | Fold Regulation NFKBIA [8] | Fold Regulation IRAK2 [9] | Fold Regulation TLR6 [10] | Fold Regulation TLR9 [11] | Fold Regulation IL1A [12] | Fold Regulation TNF [13] | Alveolar bone loss [14]
CCCCCCCCOC(=O)CC[C@@H](C)[C@H]1CC[C@H]2[C@@H]3[C@H](OC(=O)CCN)C[C@@H]4C[C@H](OC(=O)CCN)CC[C@]4(C)[C@H]3C[C@H](OC(=O)CCN)[C@]12C [CSA-44] | −15.7179 | −8.2256 | −3.2891 | −2.2461 | −2.977 | −2.2766 | −28.5329 | −52.206 | −31.8021 | −2.392 | −1.8905 | −6.0325 | −25.9588 | 
CCCCCN(CCCCC)CCC[C@@H](C)[C@H]1CC[C@H]2[C@@H]3[C@H](OCCCN)C[C@@H]4C[C@H](OCCCN)CC[C@]4(C)[C@H]3C[C@H](OCCCN)[C@]12C [CSA-90] | −13.6933 | −4.1972 | −4.718 | −7.3196 | −3.4278 | −2.5474 | −3.6734 | −26.0352 | −52.0069 | −2.0885 | −1.8613 | −6.96 | −4.8514 | 
CN/C(=N/CCSCc1nc[nH]c1C)NC#N [cimetidine] |  |  |  |  |  |  |  |  |  |  |  |  |  | reduce alveolar bone loss
